Laboratory results from the supplement of paper PMC10307832.

compound: CC1=NN=C(O1)C2=NN=C(C=C2)N3CCC(CC3)OC4=C(C=CC(=C4)F)Cl + Cc1nc(NC(=O)N2CCC[C@H]2C(N)=O)sc1-c1ccnc(C(C)(C)C(F)(F)F)c1 [Alpelisib] (partner 2 µM); assay: relative viability (nuclei count vs DMSO), 5 days (fraction); higher = more cells survive; conditions: first compound 0.253 µM
Outline: (§1)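 Cells from lung cancer lines were seeded into 1536-well plates and, one day later, dosed by pin tool. Treatments were either a single drug or a fixed dose of an anchor drug with five library-drug doses (not always all listed) in √10 steps. After 5 days, nuclei were stained in a one-step fixation (final 0.05% Triton X-100, 1% formaldehyde, 1 ug/ml Hoechst) and counted on 4× images, and relative viability is the treated-to-vehicle nuclei ratio, as the median of duplicate plates.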

Row | Cell Line | relative viability
1 | HOP-62 | 0.791
2 | LXF-289 | 0.783
3 | BEN | 0.767
4 | HARA | 0.54
5 | HCC-78 | 0.318
6 | NCI-H647 | 0.724
7 | LCLC-97TM1 | 0.28
8 | NCI-H2126 | 0.696
9 | A-427 | 1.05
10 | NCI-H650 | 1.17
11 | RERF-LC-KJ | 0.765
12 | NCI-H1915 | 0.506
13 | NCI-H441 | 0.826
14 | NCI-H1395 | 0.962
15 | 201T | 0.594
16 | HCC-827 | 0.492
17 | NCI-H322M | 0.0721
18 | NCI-H1437 | 0.696
19 | PC-14 | 0.849
20 | CAL-12T | 1.14
21 | NCI-H1734 | 0.655
22 | EPLC-272H | 0.925
23 | NCI-H3122 | 0.632
24 | NCI-H1651 | 0.821
25 | NCI-H1993 | 0.616
26 | HCC-15 | 0.661
27 | NCI-H1793 | 0.716

same assay, conditions: first compound 0.8 µM

Row | Cell Line | relative viability
28 | LXF-289 | 0.789
29 | BEN | 0.899
30 | HARA | 0.479
31 | HCC-78 | 0.309
32 | NCI-H647 | 0.715
33 | NCI-H2126 | 0.666
34 | NCI-H650 | 0.948
35 | RERF-LC-KJ | 0.695
36 | NCI-H1915 | 0.391
37 | NCI-H441 | 0.674
38 | NCI-H1975 | 0.725
39 | NCI-H1395 | 0.897
40 | 201T | 0.614
41 | HCC-827 | 0.358
42 | NCI-H322M | 0.707
43 | NCI-H1437 | 0.63
44 | PC-14 | 0.827
45 | CAL-12T | 0.871
46 | NCI-H1734 | 0.635
47 | NCI-H3122 | 0.642
48 | NCI-H1651 | 0.78
49 | NCI-H1993 | 0.619
50 | HCC-15 | 0.578
51 | NCI-H1793 | 0.773

same assay, conditions: first compound 2.53 µM

Row | Cell Line | relative viability
52 | HOP-62 | 0.609
53 | LXF-289 | 0.744
54 | BEN | 1.05
55 | HARA | 0.516
56 | HCC-78 | 0.308
57 | NCI-H647 | 0.764
58 | LCLC-97TM1 | 0.237
59 | NCI-H2126 | 0.711
60 | A-427 | 1.02
61 | NCI-H650 | 1
62 | RERF-LC-KJ | 0.839
63 | NCI-H1915 | 0.437
64 | NCI-H441 | 0.542
65 | NCI-H1975 | 0.753
66 | NCI-H1395 | 0.995
67 | 201T | 0.578
68 | HCC-827 | 0.492
69 | NCI-H322M | 0.7
70 | NCI-H1437 | 0.804
71 | PC-14 | 0.885
72 | CAL-12T | 0.989
73 | NCI-H1734 | 0.672
74 | EPLC-272H | 1.14
75 | NCI-H3122 | 0.702
76 | NCI-H1651 | 0.777
77 | NCI-H1993 | 0.65
78 | HCC-15 | 0.582
79 | NCI-H1793 | 0.717

same assay, conditions: first compound 8 µM

Row | Cell Line | relative viability
80 | HOP-62 | 0.505
81 | LXF-289 | 0.67
82 | BEN | 0.901
83 | HARA | 0.481
84 | HCC-78 | 0.321
85 | NCI-H647 | 0.704
86 | LCLC-97TM1 | 0.292
87 | NCI-H2126 | 0.598
88 | A-427 | 0.882
89 | NCI-H650 | 0.986
90 | RERF-LC-KJ | 0.781
91 | NCI-H1915 | 0.31
92 | NCI-H441 | 0.532
93 | NCI-H1975 | 0.779
94 | NCI-H1395 | 1
95 | 201T | 0.563
96 | HCC-827 | 0.476
97 | NCI-H322M | 0.747
98 | NCI-H1437 | 0.591
99 | PC-14 | 0.857
100 | CAL-12T | 0.877
101 | NCI-H1734 | 0.556
102 | EPLC-272H | 0.917
103 | NCI-H3122 | 0.618
104 | NCI-H1651 | 0.75
105 | NCI-H1993 | 0.702
106 | HCC-15 | 0.584
107 | NCI-H1793 | 0.559

compound: CC(C)C[C@@H](C(=O)N[C@H](C(=O)OC1CCCC1)c1ccccc1)[C@H](O)C(=O)NO [Tosedostat] + NC(=O)Nc1cc(-c2cccc(F)c2)sc1C(=O)N[C@H]1CCCNC1 [AZD7762] (partner 0.2 µM); assay: as above; conditions: first compound 0.02 µM
Outline: as §1

Row | Cell Line | relative viability
108 | HOP-62 | 0.56
109 | LXF-289 | 1.17
110 | BEN | 0.813
111 | HARA | 0.41
112 | HCC-78 | 0.355
113 | NCI-H647 | 0.664
114 | LCLC-97TM1 | 0.291
115 | NCI-H2126 | 0.99
116 | A-427 | 0.787
117 | NCI-H650 | 1.32
118 | RERF-LC-KJ | 1.12
119 | NCI-H1915 | 0.685
120 | NCI-H441 | 1.39
121 | NCI-H1975 | 0.768
122 | NCI-H1395 | 0.429
123 | 201T | 0.592
124 | HCC-827 | 0.201
125 | NCI-H322M | 0.648
126 | NCI-H1437 | 1.14
127 | PC-14 | 0.434
128 | CAL-12T | 0.703
129 | NCI-H1734 | 0.614
130 | EPLC-272H | 0.248
131 | NCI-H3122 | 1.1
132 | NCI-H1651 | 0.458
133 | NCI-H1993 | 0.678
134 | HCC-15 | 1.25
135 | NCI-H1793 | 0.458

same assay, conditions: first compound 0.06325 µM

Row | Cell Line | relative viability
136 | HOP-62 | 0.556
137 | LXF-289 | 1.08
138 | BEN | 0.724
139 | HARA | 0.459
140 | HCC-78 | 0.771
141 | NCI-H647 | 0.454
142 | LCLC-97TM1 | 0.209
143 | NCI-H2126 | 1.03
144 | A-427 | 0.804
145 | NCI-H650 | 1.05
146 | RERF-LC-KJ | 1.08
147 | NCI-H1915 | 0.681
148 | NCI-H441 | 1.09
149 | NCI-H1975 | 0.776
150 | NCI-H1395 | 0.42
151 | 201T | 0.668
152 | HCC-827 | 0.257
153 | NCI-H322M | 0.56
154 | NCI-H1437 | 1.15
155 | PC-14 | 0.352
156 | CAL-12T | 0.577
157 | NCI-H1734 | 0.535
158 | EPLC-272H | 0.232
159 | NCI-H3122 | 0.919
160 | NCI-H1651 | 0.486
161 | NCI-H1993 | 0.64
162 | HCC-15 | 1.17
163 | NCI-H1793 | 0.584

same assay, conditions: first compound 0.2 µM

Row | Cell Line | relative viability
164 | HOP-62 | 0.753
165 | LXF-289 | 1.19
166 | BEN | 0.901
167 | HARA | 0.261
168 | HCC-78 | 0.65
169 | NCI-H647 | 0.368
170 | LCLC-97TM1 | 0.164
171 | NCI-H2126 | 0.919
172 | A-427 | 0.773
173 | NCI-H650 | 0.904
174 | RERF-LC-KJ | 1.08
175 | NCI-H1915 | 0.785
176 | NCI-H441 | 1.13
177 | NCI-H1975 | 0.7
178 | NCI-H1395 | 0.414
179 | 201T | 0.669
180 | HCC-827 | 0.347
181 | NCI-H322M | 0.641
182 | NCI-H1437 | 1.14
183 | PC-14 | 0.314
184 | CAL-12T | 0.593
185 | NCI-H1734 | 0.504
186 | EPLC-272H | 0.267
187 | NCI-H3122 | 0.894
188 | NCI-H1651 | 0.588
189 | NCI-H1993 | 0.741
190 | HCC-15 | 1.29
191 | NCI-H1793 | 0.546

same assay, conditions: first compound 0.6325 µM

Row | Cell Line | relative viability
192 | HOP-62 | 0.345
193 | LXF-289 | 1.05
194 | BEN | 1.12
195 | HARA | 0.477
196 | HCC-78 | 0.738
197 | NCI-H647 | 0.366
198 | LCLC-97TM1 | 0.197
199 | NCI-H2126 | 0.974
200 | A-427 | 0.682
201 | NCI-H650 | 0.851
202 | RERF-LC-KJ | 0.912
203 | NCI-H1915 | 0.612
204 | NCI-H441 | 0.85
205 | NCI-H1975 | 0.654
206 | NCI-H1395 | 0.398
207 | 201T | 0.584
208 | HCC-827 | 0.176
209 | NCI-H322M | 0.613
210 | NCI-H1437 | 1.08
211 | PC-14 | 0.273
212 | CAL-12T | 0.678
213 | NCI-H1734 | 0.411
214 | EPLC-272H | 0.153
215 | NCI-H3122 | 0.875
216 | NCI-H1651 | 0.439
217 | NCI-H1993 | 0.556
218 | HCC-15 | 1.31
219 | NCI-H1793 | 0.231

same assay, conditions: first compound 2 µM

Row | Cell Line | relative viability
220 | HOP-62 | 0.379
221 | LXF-289 | 1.08
222 | BEN | 1.04
223 | HARA | 0.262
224 | HCC-78 | 0.791
225 | NCI-H647 | 0.398
226 | LCLC-97TM1 | 0.195
227 | NCI-H2126 | 0.953
228 | A-427 | 0.698
229 | NCI-H650 | 0.725
230 | RERF-LC-KJ | 0.664
231 | NCI-H1915 | 0.54
232 | NCI-H441 | 0.718
233 | NCI-H1975 | 0.608
234 | NCI-H1395 | 0.38
235 | 201T | 0.576
236 | HCC-827 | 0.178
237 | NCI-H322M | 0.567
238 | NCI-H1437 | 0.904
239 | PC-14 | 0.0971
240 | CAL-12T | 0.629
241 | NCI-H1734 | 0.466
242 | EPLC-272H | 0.192
243 | NCI-H3122 | 1.14
244 | NCI-H1651 | 0.384
245 | NCI-H1993 | 0.493
246 | HCC-15 | 1.15
247 | NCI-H1793 | 0.338

compound: CC(C)C[C@@H](C(=O)N[C@H](C(=O)OC1CCCC1)c1ccccc1)[C@H](O)C(=O)NO [Tosedostat] + Cc1cc(Nc2cc(N3CCN(C)CC3)nc(Sc3ccc(NC(=O)C4CC4)cc3)n2)n[nH]1 [Tozasertib] (partner 0.1 µM); assay: as above; conditions: first compound 0.02 µM
Outline: as §1

Row | Cell Line | relative viability
248 | HOP-62 | 0.393
249 | LXF-289 | 0.198
250 | BEN | 0.535
251 | HARA | 0.111
252 | HCC-78 | 0.414
253 | NCI-H647 | 0.37
254 | LCLC-97TM1 | 0.216
255 | NCI-H2126 | 0.829
256 | A-427 | 0.217
257 | NCI-H650 | 0.839
258 | RERF-LC-KJ | 0.553
259 | NCI-H1915 | 0.473
260 | NCI-H441 | 0.911
261 | NCI-H1975 | 0.955
262 | NCI-H1395 | 0.757
263 | 201T | 0.938
